Measured values taken from patent US9801901B2, “Alginate oligomers for use in overcoming multidrug resistance in bacteria” (priority 2009, dated 2017).
Values after ≈ are worked out from the molar mass of the structure shown. Like-named read-outs stand apart in the source and are kept apart here. Marks after values point to notes of the source that are not given here.

How the values were obtained:
[1] = system: V12 5725 (Wales) Klebsiella pneumoniae; test: MIC assay, CAMHB with alginate oligomer, no visible growth; format: cell-based; settings: Table 5, V12 MDR Kleb pneu
[2] = system: V10 (Egypt) Acinetobacter lwoffii; test: as above; format: cell-based; settings: Table 5, V10 MDR Acin. lwoff
[3] = system: Pseudomonas aeruginosa MDR 301 from Poland (V2); test: as above; format: cell-based; settings: Table 4, V2 MDR (Pol.)
V11 5702 (Wales) E. coli = test: as above; format: cell-based; settings: Table 5, V11 MDR E.coli
[4] = system: Acinetobacter baumannii MDR ACB from Libya (V4); test: as above; format: cell-based; settings: Table 4, V4 MDR (Libya)
From the text: (§1) The study described in Example 1 was repeated with the following strains of bacteria and antibiotics as detailed in Tables 4, 5 and 6.
The study described in Example 1 was repeated with the following strains of Acinetobacter baumannii, antibiotics and M-block alginate oligomer in place of OligoG CF-5/20 as detailed in Table 7. The M-block oligomer is 100% M with a DPn of 15 to 18,

[5] = system: Pseudomonas aeruginosa CFA 24-1, clinical mucoid strain (R80); test: as above; format: cell-based; settings: Table 4, R80 non MDR (muc.)
[6] = system: Pseudomonas aeruginosa ATCC 39324, mucoid type strain (R79); test: as above; format: cell-based; settings: R79 non MDR (muc.)
V5 AIM-1 E. coli = test: as above; format: cell-based; settings: Table 4, V5 MDR E. coli
From the text: as §1

[7] = system: Pseudomonas aeruginosa MDR R22 from China (V1); test: as above; format: cell-based; settings: Table 4, V1 MDR (China)
From the text: as §1

V22 6056 Acinetobacter = test: as above; format: cell-based, Acinetobacter lwoffii; settings: Table 5, V22 MDR Acin. lwoff
[8] = system: PA01 Pseudomonas aeruginosa ATCC 15692; test: MIC assay, two-fold antibiotic dilutions in CAMHB with alginate oligomer, no visible growth; format: cell-based; settings: PA01 non MDR
[9] = system: V23 1322 Burkholderia cepacia; test: MIC assay, CAMHB with alginate oligomer, no visible growth; format: cell-based
[10] = system: V9 (Egypt) Acinetobacter baumannii; test: as above; format: cell-based; settings: Table 5, V9 MDR Acin. baum
[11] = system: Klebsiella pneumoniae KP05 506 from India (V3); test: as above; format: cell-based; settings: Klebsiella pneumoniae, Table 4; V3 MDR (India); OligoCF-5/20 +10% G; read-out: MIC
[12] = Table 5, V23 MDR Burk cep, OligoCF-5/20 +6% G
[13] = Table 5, V23 MDR Burk cep, OligoCF-5/20 +10% G
[14] = Pseudomonas aeruginosa, OligoCF-5/20 0G, read-out: MIC
[15] = Pseudomonas aeruginosa, OligoCF-5/20 +6% G, read-out: MIC
[16] = Pseudomonas aeruginosa, OligoCF-5/20 +10% G, read-out: MIC
[17] = Acinetobacter baumannii, OligoCF-5/20 0G, read-out: MIC
[18] = Pseudomonas aeruginosa, OligoCF-5/20 +2% G, read-out: MIC

How did the MIC ([1]; OligoCF-5/20 0G) turn out when Spiramycin was run?
The MIC was 67^† μg/ml.

And the MIC ([1]; OligoCF-5/20 +2% G)?
The MIC was 64 µg/mL.

What about the MIC ([1]; OligoCF-5/20 +6% G) of the same compound?
The MIC was 32^† μg/ml.

What about the MIC ([1]; OligoCF-5/20 +10% G) of the same compound?
The MIC was 16† μg/ml.

What about the MIC ([2]; OligoCF-5/20 0G) of the same compound?
The MIC was under 4 µg/mL.

And the MIC ([2]; OligoCF-5/20 +2% G)?
The MIC was under 4 µg/mL.

What about the MIC ([2]; OligoCF-5/20 +6% G) of the same compound?
The MIC was under 4 µg/mL.

And the MIC ([2]; OligoCF-5/20 +10% G)?
The MIC was under 4 µg/mL.

And the MIC ([3]; OligoCF-5/20 0G)?
The MIC was >1024^† μg/ml.

And the MIC (V11 5702 (Wales) E. coli; OligoCF-5/20 0G)?
Its MIC is 128^† μg/ml.

And the MIC (V11 5702 (Wales) E. coli; OligoCF-5/20 +2% G)?
Its MIC is 64^† μg/ml.

And the MIC (V11 5702 (Wales) E. coli; OligoCF-5/20 +6% G)?
The MIC was 32^† μg/ml.

And the MIC (V11 5702 (Wales) E. coli; OligoCF-5/20 +10% G)?
Its MIC is 32^† μg/ml.

What about the MIC ([4]; OligoCF-5/20 0G) of the same compound?
The MIC was 512^† μg/ml.

And the MIC ([4]; OligoCF-5/20 +2% G)?
Its MIC is 64^† μg/ml.

And the MIC ([4]; OligoCF-5/20 +6% G)?
The MIC was 64^† μg/ml.

And the MIC ([4]; OligoCF-5/20 +10% G)?
Its MIC is 32^† μg/ml.

What about the MIC ([5]; OligoCF-5/20 0G) of the same compound?
The MIC was >1024^† μg/ml.

What about the MIC ([6]; Table 4, OligoCF-5/20 0G) of the same compound?
The MIC was >1024^† μg/ml.

What about the MIC ([6]; Table 4, OligoCF-5/20 +10% G) of the same compound?
The MIC was 256^† μg/ml.

What about the MIC (V5 AIM-1 E. coli; OligoCF-5/20 0G) of the same compound?
Its MIC is 32^† μg/ml.

What about the MIC (V5 AIM-1 E. coli; OligoCF-5/20 +2% G) of the same compound?
Its MIC is 32 µg/mL.

And the MIC (V5 AIM-1 E. coli; OligoCF-5/20 +6% G)?
Its MIC is 16^† μg/ml.

What about the MIC (V5 AIM-1 E. coli; OligoCF-5/20 +10% G) of the same compound?
Its MIC is 8† μg/ml.

What about the MIC ([7]; OligoCF-5/20 0G) of the same compound?
Its MIC is >1024^† μg/ml.

What about the MIC ([7]; OligoCF-5/20 +10% G) of the same compound?
Its MIC is 512^† μg/ml.

And the MIC (V22 6056 Acinetobacter; OligoCF-5/20 0G)?
Its MIC is under 4 µg/mL.

What about the MIC (V22 6056 Acinetobacter; OligoCF-5/20 +2% G) of the same compound?
The MIC was under 4 µg/mL.

What about the MIC (V22 6056 Acinetobacter; OligoCF-5/20 +6% G) of the same compound?
The MIC was under 4 µg/mL.

What about the MIC (V22 6056 Acinetobacter; OligoCF-5/20 +10% G) of the same compound?
The MIC was under 4 µg/mL.

What about the MIC ([8]; Table 4, OligoCF-5/20 0G) of the same compound?
The MIC was >1024^† μg/ml.

And the MIC ([8]; Table 4, OligoCF-5/20 +10% G)?
The MIC was 512^† μg/ml.

What about the MIC ([9]; Table 5, V23 MDR Burk cep, OligoCF-5/20 0G) of the same compound?
The MIC was >4096^† μg/ml.

And the MIC ([9]; Table 5, V23 MDR Burk cep, OligoCF-5/20 +2% G)?
The MIC was 2048^† μg/ml.

What about the MIC [9, 12] of the same compound?
Its MIC is 2048^† μg/ml.

What about the MIC [9, 13] of the same compound?
Its MIC is 1024^† μg/ml.

What about the MIC ([10]; OligoCF-5/20 0G) of the same compound?
The MIC was 256^† μg/ml.

What about the MIC ([10]; OligoCF-5/20 +2% G) of the same compound?
The MIC was 64^† μg/ml.

What about the MIC ([10]; OligoCF-5/20 +6% G) of the same compound?
The MIC was 32^† μg/ml.

And the MIC ([10]; OligoCF-5/20 +10% G)?
Its MIC is 16^† μg/ml.

Which results are given for `CC[C@H]1OC(=O)[C@H](C)[C@@H](O[C@H]2C[C@@](C)(OC)[C@@H](O)[C@H](C)O2)[C@H](C)[C@@H](O[C@@H]2O[C@H](C)C[C@H](N(C)C)[C@H]2O)[C@](C)(OC)C[C@@H](C)C(=O)[C@H](C)[C@@H](O)[C@]1(C)O` [Clarithromycin]?
MIC [11]: 128 µg/mL (≈ 171 µM); MIC ([1]; Klebsiella pneumoniae, OligoCF-5/20 0G, read-out: MIC): 512 µg/mL (≈ 685 µM); MIC ([1]; OligoCF-5/20 +10% G): 512 µg/mL (≈ 685 µM); MIC ([2]; Acinetobacter lwoffii, OligoCF-5/20 0G, read-out: MIC): < 0.5 µg/mL; MIC ([2]; OligoCF-5/20 +6% G): <0.5 µg/mL; MIC ([2]; OligoCF-5/20 +10% G): <0.5 µg/mL; MIC [3, 14]: 512 µg/mL (≈ 685 µM); MIC [3, 15]: 128 µg/mL (≈ 171 µM); MIC [3, 16]: 32 µg/mL (≈ 42.8 µM); MIC (V11 5702 (Wales) E. coli; Escherichia coli, OligoCF-5/20 0G, read-out: MIC): 512 µg/mL (≈ 685 µM); MIC (V11 5702 (Wales) E. coli; OligoCF-5/20 +2% G): 128^† μg/ml; MIC [4, 17]: 8 µg/mL (≈ 10.7 µM); MIC ([4]; Acinetobacter baumannii, OligoCF-5/20 +2% G, read-out: MIC): 4 µg/mL (≈ 5.35 µM); MIC ([4]; Acinetobacter baumannii, OligoCF-5/20 +6% G, read-out: MIC): ≤ 1 µg/mL; MIC ([4]; Acinetobacter baumannii, OligoCF-5/20 +10% G, read-out: MIC): ≤ 1 µg/mL; MIC [5, 14]: 1020 µg/mL (≈ 1370 µM); MIC [5, 18]: 512 µg/mL (≈ 685 µM); MIC [5, 16]: 64 µg/mL (≈ 85.6 µM); MIC ([6]; Pseudomonas aeruginosa, ATCC39324, Table 4, OligoCF-5/20 +2% G, read-out: MIC): 128 µg/mL (≈ 171 µM); MIC ([6]; Pseudomonas aeruginosa, ATCC39324, Table 4, OligoCF-5/20 +6% G, read-out: MIC): 32 µg/mL (≈ 42.8 µM); MIC ([6]; Pseudomonas aeruginosa, ATCC39324, Table 4, OligoCF-5/20 +10% G, read-out: MIC): 4 µg/mL (≈ 5.35 µM); MIC (V5 AIM-1 E. coli; Escherichia coli, OligoCF-5/20 0G): 4 µg/mL (≈ 5.35 µM); MIC (V5 AIM-1 E. coli; Escherichia coli, OligoCF-5/20 +2% G): 4 µg/mL (≈ 5.35 µM); MIC (V5 AIM-1 E. coli; Escherichia coli, OligoCF-5/20 +6% G): ≤ 1 µg/mL; MIC (V5 AIM-1 E. coli; Escherichia coli, OligoCF-5/20 +10% G): ≤ 1 µg/mL; MIC [7, 18]: 128 µg/mL (≈ 171 µM); MIC [7, 15]: 64 µg/mL (≈ 85.6 µM); MIC [7, 16]: 32 µg/mL (≈ 42.8 µM); MIC ([8]; Pseudomonas aeruginosa, ATCC15692, Table 4, OligoCF-5/20 +2% G, read-out: MIC): 128 µg/mL (≈ 171 µM); MIC ([8]; Pseudomonas aeruginosa, ATCC15692, Table 4, OligoCF-5/20 +6% G, read-out: MIC): 64 µg/mL (≈ 85.6 µM); MIC ([8]; Pseudomonas aeruginosa, ATCC15692, Table 4, OligoCF-5/20 +10% G, read-out: MIC): 32 µg/mL (≈ 42.8 µM); MIC ([9]; Burkholderia cepacia, Table 5, V23 MDR Burk cep, OligoCF-5/20 0G, read-out: MIC): 512 µg/mL (≈ 685 µM); MIC ([9]; Burkholderia cepacia, Table 6, V23, Experiment 2 (18-03-10), OligoCF-5/20 0G, read-out: MIC): 128 µg/mL (≈ 171 µM); MIC ([9]; Burkholderia cepacia, Table 6, V23, Experiment 3 (19-03-10), OligoCF-5/20 0G, read-out: MIC): 64 µg/mL (≈ 85.6 µM); MIC [9, 12]: 128^† μg/ml; MIC [9, 13]: 32^† μg/ml; MIC ([9]; Table 6, V23, Experiment 1 (18-03-10), OligoCF-5/20 +6% G): 128^† μg/ml; MIC ([9]; Table 6, V23, Experiment 1 (18-03-10), OligoCF-5/20 +10% G): 128^† μg/ml; MIC ([9]; Table 6, V23, Experiment 2 (18-03-10), OligoCF-5/20 +2% G): 128 µg/mL (≈ 171 µM); MIC ([9]; Table 6, V23, Experiment 2 (18-03-10), OligoCF-5/20 +6% G): 32^† μg/ml; MIC ([9]; Table 6, V23, Experiment 2 (18-03-10), OligoCF-5/20 +10% G): 16^† μg/ml; MIC ([9]; Table 6, V23, Experiment 3 (19-03-10), OligoCF-5/20 +2% G): 512^‡ μg/ml; MIC ([9]; Table 6, V23, Experiment 3 (19-03-10), OligoCF-5/20 +6% G): 512^‡ μg/ml; MIC ([9]; Table 6, V23, Experiment 3 (19-03-10), OligoCF-5/20 +10% G): 512‡ μg/ml; MIC [10, 17]: 16 µg/mL (≈ 21.4 µM); MIC ([10]; OligoCF-5/20 +2% G): 4^† μg/ml; MIC ([10]; OligoCF-5/20 +6% G): 2^† μg/ml; MIC ([10]; OligoCF-5/20 +10% G): 1^† μg/ml
